Results reported in US7638525B2 (Janssen Pharmaceutica N.V., priority 2004, dated 2009).

The compounds below were run on T47D human breast cancer cells (assay: In vitro test: alkaline phosphatase assay in T47D human breast cancer cells). Conditions: alkaline phosphatase luminescence after 24 h with compound, test concentration not given.
Type: cell-based
Procedure: T47D human breast cancer cells are grown in RPMI medium without phenol red (Invitrogen) containing 10% (v/v) heat-inactivated fetal bovine serum (FBS; Hyclone), 1% (v/v) penicillin-streptomycin (Invitrogen), 1% (w/v) glutamine (Invitrogen), and […] (Sigma). Incubation conditions are 37° C. in a humidified 5% (v/v) carbon dioxide environment. For assay, the cells are plated in 96-well tissue culture plates at 10,000 cells per well in assay medium [RPMI medium without phenol red (Invitrogen) containing 5% (v/v) charcoal-treated FBS (Hyclone) and 1% (v/v) penicillin-streptomycin (Invitrogen)]. Two days later, the medium is decanted and the compounds are added in a final concentration of 0.1% (v/v) dimethyl sulfoxide in fresh assay medium. Twenty-four hours later, an alkaline phosphatase assay is performed using a SEAP kit (BD Biosciences Clontech, Palo Alto, Calif.). Briefly, the medium is decanted and the cells are fixed for 30 minutes at room temperature with 5% (v/v) formalin (Sigma). The cells are washed once with room temperature Hank's buffered saline solution (Invitrogen). Equal volumes (0.05 mL) of 1× Dilution Buffer, Assay Buffer and 1:20 substrate/enhancer mixture are added. After 1-hour incubation at room temperature in the dark, the lysate is transferred to a white 96-well plate (Dynex) and luminescence is read using a LuminoSkan Ascent (Thermo Electron, Woburn, Mass.).

Row | Compound | % inhibition [%]
1 | CCC(=O)c1cc(-c2ccncc2)c(N2CCC(=O)CC2)s1 [Example 18, 1-(5-Propionyl-3-pyridin-4-yl-thiophen-2-yl)-piperidin-4-one] | 26
2 | O=C(c1cccc(Br)c1)c1cc(-c2ccncc2)c(N2CCC3(CC2)OCCO3)s1 [Example 10, (3-Bromo-phenyl)-[5-(1,4-dioxa-8-aza-spiro[4.5]-dec-8-yl)-4-pyridin-4-yl-thiophen-2-yl]-methanone] | 42
3 | COc1ccccc1C(=O)c1cc(-c2ccncc2)c(N2CCC(=O)CC2)s1 [Example 15, 1-[5-(2-Methoxy-benzoyl)-3-pyridin-4-yl-thiophen-2-yl]-piperidin-4-one] | 39
4 | O=C1CCN(c2sc(C(=O)c3ccc(Cl)cc3)cc2-c2ccncc2)CC1 [Example 16, 1-[5-(4-Chloro-benzoyl)-3-pyridin-4-yl-thiophen-2-yl]-piperidin-4-one] | 30
5 | O=C(c1ccc(Cl)cc1)c1cc(-c2ccncc2)c(N2CCC3(CC2)OCCO3)s1 [Example 3, (4-Chloro-phenyl)-[5-(1 4-dioxa-8-aza-spiro[4.5]-dec-8-yl)-4-pyridin-4-yl-thiophen-2-yl]-methanone] | 27
6 | O=C(c1ccccc1)c1cc(-c2ccncc2)c(N2CCC3(CC2)OCCO3)s1 [Example 6, [5-(1,4-Dioxa-8-aza-spiro[4.5]-dec-8-yl)-4-pyridin-4-yl-thiophen-2-yl]-phenyl-methanone] | 34
7 | O=C(c1ccc(Cl)c(Cl)c1)c1cc(-c2ccncc2)c(N2CCC3(CC2)OCCO3)s1 [Example 1, (3,4-Dichloro-phenyl)-[5-(1,4-dioxa-8-aza-spiro[4.5]-dec-8-yl)-4-pyridin-4-yl-thiophen-2-yl]-methanon] | 6
8 | O=C1CCN(c2sc(C(=O)c3ccc([N+](=O)[O-])cc3)cc2-c2ccncc2)CC1 [Example 17, 1-[5-(4-Nitro-benzoyl)-3-pyridin-4-yl-thiophen-2-yl]-piperidi n-4-one] | 30
9 | COc1cccc(C(=O)c2cc(-c3ccncc3)c(N3CCC4(CC3)OCCO4)s2)c1 [Example 7, [5-(1,4-Dioxa-8-aza-spiro[4.5]-dec-8-yl)-4-pyridin-4-yl-thiophen-2-yl-](3-methoxy-phenyl)-methanone] | 42
10 | COc1ccccc1C(=O)c1cc(-c2ccncc2)c(N2CCC3(CC2)OCCO3)s1 [Example 9, [5-(1,4-Dioxa-8-aza-spiro[4.5]-dec-8-yl)-4-pyridin-4-yl-thiophen-2-yl]-(2-methoxy-phenyl)-methanone] | 30
11 | O=C(c1ccc(F)cc1)c1cc(-c2ccncc2)c(N2CCC3(CC2)OCCO3)s1 [Example 2, [5-(1,4-Dioxa-8-aza-spiro[4.5]-dec-8-yl)-4-pyridin-4-yl-thiophen-2-yl]-(4-fluoro-phenyl)-methanone] | 15
12 | COc1cccc(C(=O)c2cc(-c3ccncc3)c(N3CCC(=O)CC3)s2)c1 [Example 12, 1-[5-(3-Methoxy-benzoyl)-3-pyridin-4-yl-thiophen-2-yl]-piperidin-4-one] | 24
13 | O=C1CCN(c2sc(C(=O)c3cccc([N+](=O)[O-])c3)cc2-c2ccncc2)CC1 [Example 19] | 29
14 | O=C1CCN(c2sc(C(=O)c3ccccc3)cc2-c2ccncc2)CC1 [Example 11, 1-(5-Benzoyl-3-pyridin-4-yl-thiophen-2-yl)-piperidin-4-one] | 35
15 | O=C1CCN(c2sc(C(=O)c3ccc(F)cc3)cc2-c2ccncc2)CC1 [Example 13, 1-[5-(4-Fluoro-benzoyl)-3-pyridin-4-yl-thiophen-2-yl]-piperidin-4-one] | 46
16 | O=C(c1cc(C(F)(F)F)cc(C(F)(F)F)c1)c1cc(-c2ccncc2)c(N2CCC3(CC2)OCCO3)s1 [Example 8, (3,5-Bis-trifluoromethyl-phenyl)-[5-(1 4-dioxa-8-aza-spiro[4.5]-dec-8-yl)-4-pyridin-4-yl-thiophen-2-yl]-methanone] | 0
17 | O=C1CCN(c2sc(C(=O)c3cc(C(F)(F)F)cc(C(F)(F)F)c3)cc2-c2ccncc2)CC1 [Example 14, 1-[5-(3,5-Bis-trifluoromethyl-benzoyl)-3-pyridin-4-yl-thiophen-2-yl]-piperidin-4-one] | 57
18 | O=C(c1ccc([N+](=O)[O-])cc1)c1cc(-c2ccncc2)c(N2CCC3(CC2)OCCO3)s1 [Example 4, [5-(1 4-Dioxa-8-aza-spiro[4.5]-dec-8-yl)-4-pyridin-4-yl-thiophen-2-yl]-(4-nitro-phenyl)-methanone] | 0
19 | CCC(=O)c1cc(-c2ccncc2)c(N2CCC3(CC2)OCCO3)s1 [Example 5, 1-[5-(1,4-Dioxa-8-aza-spiro[4.5]-dec-8-yl)-4-pyridin-4-yl-thiophen-2-yl]-1-one] | 0
20 | O=C1CCN(c2sc(C(=O)c3cccc(Br)c3)cc2-c2ccncc2)CC1 [Example 20, 1-[5-(3-Bromo-benzoyl)-3-pyridin-4-yl-thiophen-2-yl]-piperidin-4-one] | 23
